Source: the NIST ThermoML archive (doi:10.1021/je0602465)
“And” between values parts separate entries of the source, which are not always exact repeats. Equal entries are not always repeated.

Conditions: Liquid; for vapor or sublimation pressure: low residence time flow method

OCCCCCCO [1,6-hexanediol]
Conditions | Critical pressure [kPa] | Critical temperature [K] | vapor or sublimation pressure [kPa]
523.2 K | – | – | 93.33
552.8 K | – | – | 199.3
597.1 K | – | – | 500.6
637.1 K | – | – | 1001
685.1 K | – | – | 2007
717.6 K | – | – | 3024
740 K | – | – | 4012
740.4 K | – | – | 4054
Low residence time flow calorimetry | 4080 | – | –
Low residence time flow method | – | 740.8 | –

C1CNCCN1 [piperazine]
Conditions | Critical pressure [kPa] | Critical temperature [K] | vapor or sublimation pressure [kPa]
445.2 K | – | – | 189.5
471.6 K | – | – | 343.6
488.9 K | – | – | 492.3
528.1 K | – | – | 992.6
573.6 K | – | – | 1994
629.7 K | – | – | 3997
649.3 K | – | – | 4994
653.7 K | – | – | 5243
655 K | – | – | 5348
Low residence time flow calorimetry | 5420 | 656.3 | –

Oc1cccc(O)c1 [1,3-benzenediol]
Conditions | Critical pressure [kPa] | Critical temperature [K] | vapor or sublimation pressure [kPa]
546.7 K | – | – | 84.54
582.6 K | – | – | 192.6
631.7 K | – | – | 494.8
675.9 K | – | – | 994.4
728.6 K | – | – | 1994
790.6 K | – | – | 3994
813.7 K | – | – | 4999
831.3 K | – | – | 5995
Low residence time flow calorimetry | 6240 | – | –
Low residence time flow method | – | 836 | –

Oc1ccccc1O [1,2-benzenediol]
Conditions | vapor or sublimation pressure
511.3 K | 81.47 kPa
535.7 K | 147 kPa
547 K | 187.4 kPa
577.6 K | 349.1 kPa
595.6 K | 487.9 kPa
597.3 K | 499.4 kPa
621.8 K | 742.9 kPa
640.1 K | 988.9 kPa
640.9 K | 992.8 kPa
692.7 K | 1996 kPa and 1995 kPa
711.5 K | 2496 kPa
727.5 K | 2993 kPa
727.9 K | 2997 kPa
753.5 K | 4007 kPa
754.8 K | 3993 kPa
